In US10119972B2, “Reactive labelling compounds and uses thereof” (Academia Sinica, priority 2014, dated 2018):

Tests used:
[1] = tested on: CL1-5 cells; assay: Live cell imaging of azido-glycoconjugates, no-wash and no-fixation; assay type: cell-based; details: for cell permeability: live CL1-5 cells, intracellular labeling
Method: The performance of 101 in live cell imaging was evaluated. For this purpose, highly sialylated lung cancer cells, CL1-5, were cultured in the presence of peracetylated N-azidoacetylmannosamine (Ac4ManNAz) for 3 days to metabolically produce the azido-sialic acid expressed cells. As a negative control, CL1-5 cells were grown in the presence of peracetylated N-acetylmannosamine (Ac4ManNAc). A time course experiment was conducted by exposing the cells at 30-min intervals under no-wash and no-fixation conditions (FIG. 19, FIG. 22). […] Furthermore, the localization of azido-containing glycoconjugates in living cells was visualized by confocal microscopy. The cells labeled by probe 101 were subsequently stained with anti-GRASP65 followed by FITC-conjugated anti-rabbit for Golgi and propidium iodide (PI, a nuclei marker).
Toward this goal, CL1-5 cells were incubated with Ac4ManNAz for 1 h and subsequently removed excess Ac4ManNAz. We then performed the imaging to monitor the trafficking of the sialylated glycoconjugates. […] However, the appearance of blue fluorescence signal was detected on the cell surface after 5 h. The intensity of fluorescence increased over time, and reached saturation at 8 h (FIG. 21 and FIG. 23).
To observe the fluorescence labeled azido-glycoconjugates in cells, CL1-5 cells were seeded on chamber slide (2.5×10^4 cells/0.5 mL per wells) and incubated in culture medium (RPMI-1640 supplemented with 10% FBS, 100 U/mL penicillin, 100 μg/mL streptomycin, 1 mM L-glutamine and 1 mM sodium pyruvate) with either 200 μM of control sugar (peracetylated N-acetylmannosamine, Ac4ManNAc) or azido-sugar (peracetylated N-azidoacetylmannosamine, Ac4ManNAz) for 3 days.
For Time-lapse imaging of live cells, experiments were carried out using a confocal microscope (TCS-SP5-MP-SMD, Leica) equipped with an incubator to keep the cells in culture conditions. Prewashed cells were incubated with 100 μM of probe 101 in PBS with 10% DMSO and fluorescence imaging of live cells from the previous experiment over 1.5 h. The images were acquired at 450 nm emission and in 5-min intervals.
To observe the fluorescence labeled sialylconjugates in cells dependent on different time, CL1-5 cells were seeded on chamber slide (2.5×10^4 cells/0.5 mL per wells) and incubated in culture medium (RPMI-1640 supplemented with 10% FBS, 100 U/mL penicillin, 100 μg/mL streptomycin, 1 mM L-glutamine and 1 mM sodium pyruvate) with 500 μM of azido-sugar (peracetylated N-azidoacetylmannosamine, Ac4ManNAz) for 1 h. Cells were washed three times with PBS and then incubated in culture medium. […] For fluorescence imaging of live cells, experiments were carried out using a confocal microscope (TCS-SP5-MP-SMD, Leica) equipped with an incubator to keep the cells in culture conditions.

[2] = tested on: CL1-5 cells; assay: Dual fluorescence labeling in cells (SPAAC with CuAAC), confocal microscopy; assay type: cell-based; details: CL1-5 cells with Ac4ManNAl and Ac4GlcNAz; 100 μM coumOCT, 0.1 μM AzBOCEt
Method: A dual-labeling experiment was performed using SPAAC in combination with CuAAC for the concurrent fluorescence labeling of two different metabolically incorporated glycoconjugates. Peracetylated N-acetylmannosamine (Ac4ManNAc) and peracetylated N-acetylglucosamine (Ac4GlcNAc) were employed as the control sugars. ManNAc is converted metabolically to sialic acid that is found as a terminal monosaccharide of glycoproteins and glycolipids in cell, whereas GlcNAz is an internal monosaccharide that abundant in the N- and O-linked glycans produced in the endoplasmic reticulum and Golgi. CL1-5 cells were incubated in the presence of both alkyne-containing sugar (Ac4ManNAl) and azido-containing sugar (Ac4GlcNAz) for three days. The cells were stained by SPAAC with coumOCT (for azido sugars), followed by CuAAC with AzBOCEt^6j (for alkynyl sugars), and investigated by confocal microscopy (FIG. 24).
(A) Illustration of the cell labeling experiments using Ac4ManNAl, Ac4GlcNAz, 101 and AzBOCEt. CL1-5 cells were incubated with 100 μM of Ac4ManNAl and Ac4GlcNAz or control sugars (Ac4ManNAc and Ac4GlcNAc) for 3 days, which were treated with 100 μM of probe 101 for 0.5 h under SPAAC conditions, and then incubated with 0.1 μM of AzBOCEt for 1 h under CuAAC conditions. (B) Dual fluorescence imaging in CL1-5 cells. […]

[3] = Fluorescence time course of ligation of 101 with ManNAz; assay type: physicochemical; details: 101 (30 μM) with ManNAz (30 μM), PBS buffer containing 10% DMSO
Method: To probe the SPAAC reaction under the conditions that would be more typical for biomolecule labeling, we investigated the fluorescence response and time course for the reaction of 101 with ManNAz.
FIG. 16 describes (a) Absorption and Fluorescence emission spectra (λex=330 nm) of 101 (black), 111 (blue) and 112 (red) (45 μM, PBS buffer containing 10% DMSO, pH 7.4). (b) Time course of normalized fluorescence intensity at 435 nm (λex=330 nm) for the ligation reaction of 101 (30 μM) with N-azidoacetylmannosamine (30 μM) in PBS buffer containing 10% DMSO.
A solution of probe 101 (0.075 μmol) and N-azidoacetylmannosamine (0.075 μmol) in a mixture of 10% DMSO in PBS buffer (2.5 mL) was incubated at 37° C. The fluorescence emission intensity at 435 nm upon excitation at 330 nm was monitored in 5 min intervals. For each point the fluorescence intensity was measured over a period of 5 sec and averaged over a total of 3 points. In a control experiment the same conditions were used except that N-acetylmannosamine (0.075 μmol) was added to the solution.

cell permeability [1]: cell-permeable
cell permeability ([1]; listed as coumOCT): cell-permeable probe
Compound: O=c1ccc2cc3c(cc2o1)C#CCCCC3 [Compound 101, 6,7,8,9-Tetrahydro-10,11-didehydro-cycloocta[g]chromen-2(2H)-one]
incubation time to saturation of fluorescence intensity ([1]; Ac4ManNAz treated CL1-5 cells, 100 μM probe, no-wash and no-fixation): 1.5 h
background labeling ([1]; control cells grown with Ac4ManNAc): background labeling is negligible
localization of labeled glycoconjugates [2]: shown only in the cytosol
time for fluorescence intensity to reach a plateau ([3]; 435 nm (λex=330 nm)): less than 1 h
ManNAz consumed ([3]; in 40 min): more than 90%
